Experimental data published in patent US5985630A, “Assay for detecting inhibitors of aminoacyl-tRNA synthetases” (Zeneca Limited, priority 1993, dated 1999).

Assays:
[1] = biological target: T1, E. coli ITRS (isoleucyl-tRNA synthetase) (Escherichia coli, UniProt P00956); assay: Colorimetric assay based on valine as substrate (valine-based assay of the invention); format: biochemical; settings: 15 mM valine, 0.75 mM ATP, 37° C., read-out: Concentration giving 50% inhibition (I50)
T1 construct: endogenous in cells; enzyme partially purified in house
T1 sequence (P00956 whole entry): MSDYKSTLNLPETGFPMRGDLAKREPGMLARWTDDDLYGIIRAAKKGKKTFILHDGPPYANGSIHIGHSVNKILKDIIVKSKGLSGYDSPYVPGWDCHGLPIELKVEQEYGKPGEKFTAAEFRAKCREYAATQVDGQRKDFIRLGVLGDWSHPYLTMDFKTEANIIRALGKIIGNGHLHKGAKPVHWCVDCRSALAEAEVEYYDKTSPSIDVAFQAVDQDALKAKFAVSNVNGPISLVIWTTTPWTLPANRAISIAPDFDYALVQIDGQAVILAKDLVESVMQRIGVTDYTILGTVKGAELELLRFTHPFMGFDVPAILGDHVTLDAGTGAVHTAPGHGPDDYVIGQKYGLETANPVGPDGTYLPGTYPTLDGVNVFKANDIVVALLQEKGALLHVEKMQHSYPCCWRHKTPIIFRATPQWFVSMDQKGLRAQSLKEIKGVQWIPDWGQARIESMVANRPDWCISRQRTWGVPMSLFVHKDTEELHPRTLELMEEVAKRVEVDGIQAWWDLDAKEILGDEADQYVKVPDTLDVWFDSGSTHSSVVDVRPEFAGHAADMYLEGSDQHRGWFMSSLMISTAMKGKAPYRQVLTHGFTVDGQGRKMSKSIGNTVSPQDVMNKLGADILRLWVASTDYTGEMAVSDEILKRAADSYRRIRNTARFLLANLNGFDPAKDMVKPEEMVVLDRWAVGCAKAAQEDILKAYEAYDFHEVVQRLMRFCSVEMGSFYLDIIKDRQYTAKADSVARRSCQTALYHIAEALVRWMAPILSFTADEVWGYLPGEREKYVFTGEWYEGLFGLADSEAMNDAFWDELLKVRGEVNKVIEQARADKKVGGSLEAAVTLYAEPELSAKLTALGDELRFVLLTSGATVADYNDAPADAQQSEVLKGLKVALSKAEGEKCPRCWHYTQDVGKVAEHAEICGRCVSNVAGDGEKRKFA
Method: 2. Measurement of ITRS activity using a Colorimetric Assay based on using Valine as Substrate
Incubations were set up in quadruplicate (as above) with a final volume of 200 μl as described below. Stock reagents used in the method were as follows:
(§1) Prepared as described above. The specific activity of the enzyme used in the present example was approximately 145 nM of product formed/minute/mg, and was about 5%-10% active. The enzyme was diluted as appropriate. It will be appreciated that the enzyme amounts in the assay can be adjusted according to the purity of the enzyme used.
(§2) The assay mixture for a final volume of 200 μl was composed of:
The standard assay (in 200 μl) was carried out in quadruplicate in Eppendorf microcentrifuge tubes. The ingredients were pre-incubated for 2-3 minutes at 37° C. and the reaction started by addition of 20 μl of appropriately diluted enzyme extract (as described above).
Thus the final reaction contained reagents in the following concentrations:
0.12 mg of mixed tRNA species from E. coli (as described above) HPLC purified from […] available from by Sigma (UK) Ltd 1 unit/μl of inorganic pyrophosphatase and
an appropriate concentration of ITRS (for example […] of the enzyme as described above).
The samples were incubated at 37° C. for 20-60 minutes. […] The optical absorbance is then measured at a wavelength of 630 nm using a spectrophotometer.

[2] = biological target: T1, E. coli ITRS (isoleucyl-tRNA synthetase); assay: 3H-isoleucine-based radiolabelled (standard radiometric) assay; format: biochemical; settings: for IC50: standard 3H-isoleucine radiometric assay, 10 μM isoleucine, 1 mM ATP, 37° C., read-out: Concentration giving 50% inhibition (I50); for Mode of inhibition: with respect to the amino acid substrate, Compound 1 at 0, 0.25 μM and 1.0 μM with varying 3H-isoleucine up to 100 μM
Method: 2. Measurement of ITRS Activity using a ^3 H-Isoleucine-Based Radiolabelled Assay
The activity of ITRS during fractionation was monitored using conditions based on the method described by Steinmetz and Weil (7), and as described below. Stock reagents used in the method are as follows:
as §1, §2
The standard assay (in 200 μl) was carried out in quadruplicate in Eppendorf microcentrifuge tubes. The ingredients were preincubated for 2-3 minutes at 37° C., and the reaction started by addition of approximately 20 μl of the appropriately diluted enzyme extract as described above.
The final reaction contained reagents in the following concentrations:
0.1% bovine serum albumin
10 μM Isoleucine containing ^3 H-Ile
The assay was incubated at 37° C. for 20 minutes, and stopped by addition of 50 μl 20% TCA, and the tubes placed on ice.
200 μl of the reaction mixture was pipetted onto 1.5 cm^2 cellulose 3MM filters. The filters were washed (in groups of 4) as follows: 1×10% TCA, 2×5% TCA, and 2×ethanol using fresh wash medium for each set of replicates to avoid cross contamination. The dried filters were placed in 20 ml scintillation vials and the radioactivity counted in 15 ml Optiphase.
The inhibition constants of two compounds were measured and the results compared with the values obtained using the standard ^3 H-isoleucine assay.

Row | SMILES | IC50 [1] [nM] | IC50 [2] [nM] | Mode of inhibition [2] | Mode of inhibition ([2]; listed as compound 1)
1 | CC(=O)C(C)C1OC1CC1COC(CC(C)=CC(=O)O)C(O)C1O (stereo not shown) [Compound 1] | 2000 | 109 | competitive with respect to isoleucine | competitive with the amino acid
2 | C=COCCOC(=O)C=C(C)CC1OCC(CC2OC2C(C)C(C)O)C(O)C1O (stereo not shown) [Compound 2] | 38 | 2.3 | competitive with the amino acid | –
